Measured values taken from patent publication US20260285850A1, “SUBSTITUTED OXAZOLIDINONES AND IMIDAZOLINONES AS HERBICIDES” (FMC CORPORATION, priority 2023, published 2026).

Tests used:
Format in all cases: in vivo
[1] = test system: ragweed (common ragweed, Ambrosia artemisiifolia); experiment: Test A preemergence soil spray, visual injury rating 0-100; conditions: 10 days
Summary of the method: (§1)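 Directed preemergence spray onto seeded soil or postemergence spray onto 2-10 cm plants (loam plus sand); compound carried in surfactant-containing non-phytotoxic solvent. Injury rated by eye after 10 d greenhouse growth; 0 = no effect, 100 = complete control.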

[2] = test system: green foxtail (Setaria viridis); experiment: as above; conditions: 10 days
Summary of the method: as §1

[3] = test system: wheat (Triticum aestivum); experiment: as above; conditions: 10 days
Summary of the method: as §1

[4] = test system: ryegrass, Italian (italian ryegrass, Lolium multiflorum); experiment: as above; conditions: 10 days
Summary of the method: as §1

[5] = test system: blackgrass (Alopecurus myosuroides); experiment: as above; conditions: 10 days
Summary of the method: as §1

kochia (Bassia scoparia) [6] = experiment: as above; conditions: 10 days
Summary of the method: as §1

[7] = test system: oat, wild (wild oat, Avena fatua); experiment: as above; conditions: 10 days
Summary of the method: as §1

[8] = test system: palmer (palmer amaranth, palmer pigweed, Amaranthus palmeri); experiment: as above; conditions: 10 days
Summary of the method: as §1

soybean (Glycine max) [9] = experiment: as above; conditions: 10 days
Summary of the method: as §1

[10] = test system: barnyardgrass (Echinochloa crus-galli); experiment: as above; conditions: 10 days
Summary of the method: as §1

corn (Zea mays) [11] = experiment: as above; conditions: 10 days
Summary of the method: as §1

[12] = test system: sedge, umbrella (small-flower umbrella sedge, Cyperus difformis); experiment: Test B flooded paddy test, visual plant response rating 0-100; conditions: 250 g ai/ha, Flood, applied to paddy water, evaluated after 13 days
Summary of the method: (§2)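 In this flooded assay, 2-leaf seedlings received compound through the water layer, kept at 3 cm over the soil. Plants were held 13 days in a greenhouse and then visually compared with control pots.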

rice (Oryza sativa) = experiment: as above; conditions: 250 g ai/ha, Flood, applied to paddy water, evaluated after 13 days
Summary of the method: as §2

[13] = test system: barnyardgrass (Echinochloa crusgalli); experiment: as above; conditions: 250 g ai/ha, Flood, applied to paddy water, evaluated after 13 days
Summary of the method: as §2

[14] = test system: ducksalad (Heteranthera limosa); experiment: as above; conditions: 250 g ai/ha, Flood, applied to paddy water, evaluated after 13 days
Summary of the method: as §2

[15] = test system: horseweed (Erigeron canadensis); experiment: Test A postemergence application, visual injury rating 0-100
Summary of the method: as §1

[16] = test system: ragweed (common ragweed, Ambrosia artemisiifolia); experiment: as above
Summary of the method: as §1

[17] = test system: green foxtail (Setaria viridis); experiment: as above
Summary of the method: as §1

[18] = test system: wheat (Triticum aestivum); experiment: as above
Summary of the method: as §1

[19] = test system: ryegrass, Italian (italian ryegrass, Lolium multiflorum); experiment: as above
Summary of the method: as §1

[20] = test system: blackgrass (Alopecurus myosuroides); experiment: as above
Summary of the method: as §1

kochia (Bassia scoparia) [21] = experiment: as above
Summary of the method: as §1

[22] = test system: oat, wild (wild oat, Avena fatua); experiment: as above
Summary of the method: as §1

[23] = test system: palmer (palmer amaranth, palmer pigweed, Amaranthus palmeri); experiment: as above
Summary of the method: as §1

soybean (Glycine max) [24] = experiment: as above
Summary of the method: as §1

[25] = test system: barnyardgrass (Echinochloa crus-galli); experiment: as above
Summary of the method: as §1

corn (Zea mays) [26] = experiment: as above
Summary of the method: as §1

[27] = 62 g ai/ha, 0 = no effect, 100 = complete control
[28] = 62 g ai/ha, postemergence, 10 days, 0 = no effect, 100 = complete control
[29] = Postemergence, 16 g ai/ha, greenhouse 10 days, 0 no effect, 100 complete control

Compound: COC(=O)COC(=O)C1=CCC(NC(=O)C2(C)CN(c3cc(F)cc(F)c3)C(=O)O2)C1 (centres unmarked) [Compound 107]
- Ragweed plant response rating ([1]; 16 g ai/ha, 0 to 100 scale): 0
- Ragweed plant response rating (0-100) [1, 27]: 0
- Foxtail, Green plant response rating ([2]; 16 g ai/ha, 0 to 100 scale): 0
- Foxtail, Green plant response rating (0-100) [2, 27]: 0
- Wheat plant response rating ([3]; 16 g ai/ha, 0 to 100 scale): 0
- Wheat plant response rating (0-100) [3, 27]: 10
- Ryegrass, Italian plant response rating ([4]; 16 g ai/ha, 0 to 100 scale): 10
- Ryegrass, Italian plant response rating (0-100) [4, 27]: 40
- Blackgrass plant response rating ([5]; 16 g ai/ha, 0 to 100 scale): 0
- Blackgrass plant response rating (0-100) [5, 27]: 0
- Kochia plant response rating (kochia (Bassia scoparia) [6]; 16 g ai/ha, 0 to 100 scale): 0
- Kochia plant response rating (0-100) (kochia (Bassia scoparia) [6]; [27]): 0
- Oat, Wild plant response rating ([7]; 16 g ai/ha, 0 to 100 scale): 0
- Oat, Wild plant response rating (0-100) [7, 27]: 0
- Pigweed, Palmer plant response rating ([8]; 16 g ai/ha, 0 to 100 scale): 0
- Pigweed, Palmer plant response rating (0-100) [8, 27]: 0
- Soybean plant response rating (soybean (Glycine max) [9]; 16 g ai/ha, 0 to 100 scale): 0
- Soybean plant response rating (0-100) (soybean (Glycine max) [9]; [27]): 0
- Barnyardgrass plant response rating ([10]; 16 g ai/ha, 0 to 100 scale): 0
- Barnyardgrass plant response rating (0-100) [10, 27]: 10
- Corn plant response rating (corn (Zea mays) [11]; 16 g ai/ha, 0 to 100 scale): 0
- Corn plant response rating (0-100) (corn (Zea mays) [11]; [27]): 0
- Plant response rating, Sedge, Umbrella (0 to 100 scale, 0 is no effect and 100 is complete control) [12]: 0
- Plant response rating, Rice (0 to 100 scale, 0 is no effect and 100 is complete control) (rice (Oryza sativa)): 0
- Plant response rating, Barnyardgrass (0 to 100 scale, 0 is no effect and 100 is complete control) [13]: 0
- Plant response rating, Ducksalad (0 to 100 scale, 0 is no effect and 100 is complete control) [14]: 0
- Horseweed plant response rating (0-100) [15, 28]: 30
- Horseweed plant response rating (0 to 100 scale) [15, 29]: 0
- Ragweed plant response rating (0-100) [16, 28]: 20
- Ragweed plant response rating (0 to 100 scale) [16, 29]: 0
- Foxtail, Green plant response rating (0-100) [17, 28]: 20
- Foxtail, Green plant response rating (0 to 100 scale) [17, 29]: 0
- Wheat plant response rating (0-100) [18, 28]: 50
- Wheat plant response rating (0 to 100 scale) [18, 29]: 0
- Ryegrass, Italian plant response rating (0-100) [19, 28]: 60
- Ryegrass, Italian plant response rating (0 to 100 scale) [19, 29]: 0
- Blackgrass plant response rating (0-100) [20, 28]: 60
- Blackgrass plant response rating (0 to 100 scale) [20, 29]: 0
- Kochia plant response rating (0-100) (kochia (Bassia scoparia) [21]; [28]): 10
- Kochia plant response rating (0 to 100 scale) (kochia (Bassia scoparia) [21]; [29]): 0
- Oat, Wild plant response rating (0-100) [22, 28]: 20
- Oat, Wild plant response rating (0 to 100 scale) [22, 29]: 0
- Pigweed, Palmer plant response rating (0-100) [23, 28]: 30
- Pigweed, Palmer plant response rating (0 to 100 scale) [23, 29]: 0
- Soybean plant response rating (0-100) (soybean (Glycine max) [24]; [28]): 40
- Soybean plant response rating (0 to 100 scale) (soybean (Glycine max) [24]; [29]): 0
- Barnyardgrass plant response rating (0-100) [25, 28]: 80
- Barnyardgrass plant response rating (0 to 100 scale) [25, 29]: 0
- Corn plant response rating (0-100) (corn (Zea mays) [26]; [28]): 100
- Corn plant response rating (0 to 100 scale) (corn (Zea mays) [26]; [29]): 0
